In data set [1] the test system is HUVEC. Put plainly: in vitro. Conditions: HUVEC (normal human cell); for LC50: 50% cell destroying lethal concentration; for IC50: Homo sapiens, HUVEC, 50% cell growth inhibition concentration. From the text:
(§1) The cancer cell growth inhibition test was primarily used to detect the effect of a candidate drug on cancer cell proliferation. The working principle involved therein is the abilityof viable cells to shift alamarBlue (Biosource, USA) from its originally non-fluorescent oxidized state to a reduced form (fluorescent, red) having fluorescence via metabolic reaction. According to the fluorescent data result generated by the alamarBlue reagent thus obtained, the proliferation of the viable cells and cell activity can be quantified for detection.
(§2) In this experiment, the assay concentrations of the candidate drug were set to be 0.01, 0.1, 1, 10, and 100 µg/ml, and the following cell lines were used: 6 human cancer cells MCF-7 (breast cancer), HT-29 (colon cancer), HL-60 (leukemia), HepG2 (liver cancer), A549 (lung cancer), and U937 (lymphoma cancer), and a normal human umbilicalvenalepithelialcell (HUVEC).

Data set [2] deals with U937 (lymphoma cancer). Kind of data set: cells. The conditions noted are these: for IC50: Homo sapiens; for LC50: U937, 50% cell destroying lethal concentration.
Text: as §1, §2

For data set [3], the system named is HT-29 (colon cancer). Put plainly: cells. Conditions: for LC50: 50% cell destroying lethal concentration; for IC50: 50% cell growth inhibition concentration.
Text: as §1, §2

Data set [4] relates to A549 (lung cancer). Put plainly: cells. The conditions noted are these: for LC50: A549, 50% cell destroying lethal concentration; for IC50: Homo sapiens, A549, A549, 50% cell growth inhibition concentration.
Text: as §1, §2

The subject of data set [5] is HL-60 (leukemia). Kind of data set: cells. The conditions noted are these: for LC50: HL-60, 50% cell destroying lethal concentration; for IC50: Homo sapiens, HL-60, HL-60, 50% cell growth inhibition concentration.
Text: as §1, §2

The test system of data set [6] is MCF-7 (breast cancer). Kind of data set: cells. The conditions noted are these: for LC50: 50% cell destroying lethal concentration; for IC50: 50% cell growth inhibition concentration.
Text: as §1, §2

Data set [7] has as its system HepG2 (liver cancer). Put plainly: cells. Conditions: for LC50: 50% cell destroying lethal concentration; for IC50: 50% cell growth inhibition concentration.
Text: as §1, §2

A short description of data set [8]: in vitro. The conditions noted are these: human.
Text: as §1, §2

In brackets after ≈: the same amount, converted by molar mass.

Regarding `CC(C)=CCc1c2c(c(O)c3c1OC14C(=CC5CC1C(C)(C)OC4(CC=C(C)C(=O)O)C5=O)C3=O)C=CC(C)(C)O2` (centres unmarked) [TSB-2, isomorellic acid], the LC50 (as a rule, the concentration lethal to half of the exposed cells or organisms) in data set [1] came to 22 µg/mL (≈ 39.2 µM); in data set [2], 6.1 µg/mL (≈ 10.9 µM); in data set [3] (HT-29), 12 µg/mL (≈ 21.4 µM); in data set [4], 4.6 µg/mL (≈ 8.2 µM); in data set [5] it was 43 µg/mL (≈ 76.7 µM); in data set [6] (MCF-7), 24 µg/mL (≈ 42.8 µM). Moreover, the LC50 in data set [7] (HepG2) was 33 µg/mL (≈ 58.9 µM). Besides, the IC50 (commonly the point on the concentration scale where inhibition reaches its midpoint) in data set [1] came to 1.7 µg/mL (≈ 3.03 µM); in data set [2] (U-937), 1.6 µg/mL (≈ 2.85 µM); in data set [3] (HT-29), 6.9 µg/mL (≈ 12.3 µM); in data set [4], 1.3 µg/mL (≈ 2.32 µM); in data set [5], 2.3 µg/mL (≈ 4.1 µM); in data set [6] (MCF-7) it was 9.0 µg/mL (≈ 16.1 µM). Moreover, the IC50 in data set [7] (HepG2) was found to be 6.4 µg/mL (≈ 11.4 µM).
As to `CC(C)=CCc1c(O)cc(O)c2c(=O)c3cc4c(c(O)c3oc12)OC(C)(C)C=C4` [TSB-4, 7,9,12-trihydroxy-2,2-dimethyl-10-(3-methyl-but-2-enyl)-2H-pyrano[3,2-b]xanthen-6-one], the CC50 in data set [8] came out at 21 µg/mL (≈ 53.2 µM). Besides, the IC50 in data set [1] was 11 µg/mL (≈ 27.9 µM); in data set [2] (U-937, U937, 50% cell growth inhibition concentration), 6.9 µg/mL (≈ 17.5 µM); in data set [3] (Homo sapiens, HT-29, HT-29), 8.4 µg/mL (≈ 21.3 µM); in data set [4], 1.8 µg/mL (≈ 4.56 µM); in data set [5] it was 7.7 µg/mL (≈ 19.5 µM); in data set [6] (Homo sapiens, MCF7, MCF-7) it was 10 µg/mL (≈ 25.4 µM). The IC50 in data set [7] (Homo sapiens, HepG2, HepG2) worked out at 8.9 µg/mL (≈ 22.6 µM).
Take `CC(C)=CCCC1(C)C=Cc2c(O)c3c(c(CC=C(C)C)c2O1)OC12C(=CC4CC1C(C)(C)OC2(CC=C(C)C(=O)O)C4=O)C3=O` (centres unmarked) [TSB-3, isogambogic acid]: the LC50 is 5.2 µg/mL (≈ 8.27 µM) in data set [1]; 3.1 µg/mL (≈ 4.93 µM) in data set [2]; 8.8 µg/mL (≈ 14 µM) in data set [3] (HT-29); 4.8 µg/mL (≈ 7.63 µM) in data set [4]; 4.6 µg/mL (≈ 7.32 µM) in data set [5]; 4.3 µg/mL (≈ 6.84 µM) in data set [6] (MCF-7). This molecule also displayed an LC50 in data set [7] (HepG2) of 1.9 µg/mL (≈ 3.02 µM). Also, the IC50 turned out to be 1.1 µg/mL (≈ 1.75 µM) in data set [1]; 0.82 µg/mL (≈ 1.3 µM) in data set [2] (U-937); 6.4 µg/mL (≈ 10.2 µM) in data set [3] (Homo sapiens, HT-29, HT-29); 0.88 µg/mL (≈ 1.4 µM) in data set [4]; 0.97 µg/mL (≈ 1.54 µM) in data set [5]; 1.6 µg/mL (≈ 2.54 µM) in data set [6] (Homo sapiens, MCF7, MCF-7). Besides, in data set [7] (Homo sapiens, HepG2, HepG2), the IC50 is 1.2 µg/mL (≈ 1.91 µM).
`CC(C)=CCc1c2c(c(O)c3c1OC14C(=CC5CC1C(C)(C)OC4(CC=C(C)C)C5=O)C3=O)C=CC(C)(C)O2` (centres unmarked) [TSB-8, desoxymorellin]: the LC50 in data set [1] is 40 µg/mL (≈ 75.4 µM); in data set [2], greater than 100 µg/mL; in data set [3] (HT-29), 69 µg/mL (≈ 130 µM); in data set [4], 56 µg/mL (≈ 106 µM); in data set [5], greater than 100 µg/mL; in data set [6] (MCF-7), 83 µg/mL (≈ 156 µM). This molecule gave an LC50 in data set [7] (HepG2) of 31 µg/mL (≈ 58.4 µM). Moreover, the IC50 in data set [1] is 2.8 µg/mL (≈ 5.28 µM); in data set [2] (U-937) it was 6.2 µg/mL (≈ 11.7 µM); in data set [3] (Homo sapiens, HT-29, HT-29), 6.7 µg/mL (≈ 12.6 µM); in data set [4], 4.8 µg/mL (≈ 9.05 µM); in data set [5], 6.5 µg/mL (≈ 12.2 µM); in data set [6] (Homo sapiens, MCF7, MCF-7), 5.3 µg/mL (≈ 9.99 µM). In addition, the midpoint of inhibition in data set [7] (Homo sapiens, HepG2, HepG2), the IC50, lay at 3.9 µg/mL (≈ 7.35 µM).

Values taken from patent publication EP1619195A2, “Compounds isolated from gamboge resin having activity in inhibiting the growth of tumor/cancer cells and pharmaceutical compositions comprising the same” (priority 2004, dated 2006).
